In this test the target is T1, human mAChR M4 (Homo sapiens, UniProt P08173).
T1 construct: expressed in transfected cells
T1 sequence (P08173 1-479): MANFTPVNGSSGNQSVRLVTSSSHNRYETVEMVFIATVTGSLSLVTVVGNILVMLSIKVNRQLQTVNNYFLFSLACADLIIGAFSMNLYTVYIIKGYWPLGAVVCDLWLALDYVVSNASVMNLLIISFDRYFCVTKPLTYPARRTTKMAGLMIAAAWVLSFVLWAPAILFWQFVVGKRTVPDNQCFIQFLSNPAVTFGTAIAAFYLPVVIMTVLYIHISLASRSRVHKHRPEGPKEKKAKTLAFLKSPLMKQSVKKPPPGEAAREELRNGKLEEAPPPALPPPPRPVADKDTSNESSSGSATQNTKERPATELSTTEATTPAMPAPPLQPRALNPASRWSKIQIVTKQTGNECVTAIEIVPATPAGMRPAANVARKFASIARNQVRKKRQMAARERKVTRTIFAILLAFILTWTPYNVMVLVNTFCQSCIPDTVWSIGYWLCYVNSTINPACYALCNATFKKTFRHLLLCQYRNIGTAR
Nature of the test: mAChR M4 cell-based functional assay (calcium mobilization, CHO-K1 hM4-Gqi5 cells). Conditions: for Emax at 30 µM: CHO-K1, % ACh maximum at 30 μM, human M4; for EC50: positive allosteric modulator activity, increase in the EC20 acetylcholine response, CHO-K1 hM4-Gqi5 cells, read-out: Human M4 EC50. Put shortly:
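Fluorescent calcium read-out (Fluo-4 AM, FDSS, 1 Hz) in hM4-Gqi5 CHO-K1 cells, 11-point 1:3 compound series. Agonism scored on compound addition, PAM activity as increase of the 144 s EC20 acetylcholine response, antagonism as decrease of the 230 s EC80 response; four-parameter logistic fits give EC50 and Emax.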
(In general: Calcium flux is commonly read through the fluorescence of an indicator in the cells.)

A word on the Emax: it is the maximal effect, on the per cent scale that the assay sets. Broadly, the EC50 is the midpoint of the concentration-response curve.

Consider `Cc1cc(C(=O)N2CC3(COC3)C2)nnc1N1CCc2ncc(N3CCO[C@H](C)C3)cc2C1` [Example 575, (R)-(5-methyl-6-(3-(2-methylmorpholino)-7,8-dihydro-1,6-naphthyridin-6(5H)-yl)pyridazin-3-yl)(2-oxa-6-azaspiro[3.3]heptan-6-yl)methanone], for which the Emax at 30 µM was found to be 75% and the EC50 came to 88 nM.
As to `[2H]C([2H])([2H])c1cnc2c(c1)CN(c1nnc(C(=O)N3CC(F)(F)C3)cc1C)CC2` [Example 576, (3,3-difluoroazetidin-1-yl)(5-methyl-6-(3-(methyl-d3)-7,8-dihydro-1,6-naphthyridin-6(5H)-yl)pyridazin-3-yl)methanone], the Emax at 30 µM stood at 71% and the EC50 turned out to be 41 nM.
As for `[2H]C([2H])([2H])c1cnc2c(c1)CN(c1nnc(C(=O)N3CC4(COC4)C3)cc1C)CC2` [Example 577, (5-methyl-6-(3-(methyl-d3)-7,8-dihydro-1,6-naphthyridin-6(5H)-yl)pyridazin-3-yl)(2-oxa-6-azaspiro[3.3]heptan-6-yl)methanone], the Emax at 30 µM turned out to be 70% and the EC50 is 109 nM.
With `[2H]C([2H])([2H])c1cnc2c(c1)CN(c1nnc(C(=O)N3CCCC3)cc1C)CC2` [Example 578, (5-methyl-6-(3-(methyl-d3)-7,8-dihydro-1,6-naphthyridin-6(5H)-yl)pyridazin-3-yl)(pyrrolidin-1-yl)methanone], the Emax at 30 µM was determined as 105% and the EC50 was found to be 2440 nM.
Consider `[2H]C([2H])([2H])c1cnc2c(c1)CN(c1nnc(C(=O)NCc3ccncc3)cc1C)CC2` [Example 579, 5-methyl-6-(3-(methyl-d3)-7,8-dihydro-1,6-naphthyridin-6(5H)-yl)-N-(pyridin-4-ylmethyl)pyridazine-3-carboxamide], for which the Emax at 30 µM is 111% and the EC50 was determined as 50 nM.
In the same order, the values of `[2H]C([2H])([2H])c1cnc2c(c1)CN(c1nnc(C(=O)NC3(c4cccnc4)CC3)cc1C)CC2` [Example 580, 5-methyl-6-(3-(methyl-d3)-7,8-dihydro-1,6-naphthyridin-6(5H)-yl)-N-(1-(pyridin-3-yl)cyclopropyl)pyridazine-3-carboxamide] are 75% and 108 nM.
Turning to `Cc1cc(C(=O)NCc2ccncc2)nnc1N1CCc2ncc(CC(F)(F)F)cc2C1` [Example 581, 5-methyl-N-(pyridin-4-ylmethyl)-6-(3-(2,2,2-trifluoroethyl)-7,8-dihydro-1,6-naphthyridin-6(5H)-yl)pyridazine-3-carboxamide], the Emax at 30 µM was determined as 96% and the EC50 worked out at 60 nM.
Regarding `Cc1cc(C(=O)N2CCCC2)nnc1N1CCc2ncc(CC(F)(F)F)cc2C1` [Example 582, (5-methyl-6-(3-(2,2,2-trifluoroethyl)-7,8-dihydro-1,6-naphthyridin-6(5H)-yl)pyridazin-3-yl)(pyrrolidin-1-yl)methanone], the Emax at 30 µM came to 76% and the EC50 came out at 1910 nM.
Take `Cc1cc(C(=O)N2CC(F)(F)C2)nnc1N1CCc2ncc(CC(F)(F)F)cc2C1` [Example 583, (3,3-difluoroazetidin-1-yl)(5-methyl-6-(3-(2,2,2-trifluoroethyl)-7,8-dihydro-1,6-naphthyridin-6(5H)-yl)pyridazin-3-yl)methanone]: the Emax at 30 µM came to 91% and the EC50 came out at 121 nM.
In the same order, the values of `Cc1cc(C(=O)N2CC(CO)(CO)C2)nnc1N1CCc2ncc(CC(F)(F)F)cc2C1` [Example 584, (3,3-bis(hydroxymethyl)azetidin-1-yl)(5-methyl-6-(3-(2,2,2-trifluoroethyl)-7,8-dihydro-1,6-naphthyridin-6(5H)-yl)pyridazin-3-yl)methanone] are 91% and 533 nM.
As for `Cc1cc(C(=O)NC2(c3cccnc3)CC2)nnc1N1CCc2ncc(CC(F)(F)F)cc2C1` [Example 585, 5-methyl-N-(1-(pyridin-3-yl)cyclopropyl)-6-(3-(2,2,2-trifluoroethyl)-7,8-dihydro-1,6-naphthyridin-6(5H)-yl)pyridazine-3-carboxamide], the Emax at 30 µM came out at 96% and the EC50 came out at 482 nM.
